# Data published in patent US12169196B2, “Human iPSC-based drug testing platform for muscular dystrophy” (The Johns Hopkins University, priority 2019, dated 2024).
# “Also recorded” adds a separate entry of the source.
# Key:
# [1] = tested on: mdx^5cv mice; experiment: Treadmill running; type: in vivo, mouse; conditions: 1344 h
# Method: (§1) All animal experiments were approved by the Institutional Animal Care and Use Committee (IACUC) of The Johns Hopkins University, School of Medicine (Baltimore, Maryland). Mdx^5cv (B6Ros.Cg-Dmdmdx-5Cv/J) were obtained from The Jackson Laboratory. Mice were maintained in a 12-h light cycle (7 am-7 pm) with ad libitum access to food and water. […] Ginsenoside Rd was suspended in saline containing 10% 1,3-propanediol as vector.
# (§2) Forelimb grip strength was measured as maximal tensile force using a computerized force transducer (Grip Strength Meter, Bioseb). Five measurements were performed for each animal and the maximum value was used for the analysis. Treadmill testing was performed using a motor-driven treadmill (Columbus Instruments). Prior to the test day, acclimatization was performed 5 times over a period of 2 weeks at 10 m/min. On the test day, mice ran at 5 m/min for 5 min (warm up) and the speed was increased 1 m/min every min up to 10 m/min. Mice were considered exhausted when they sat for more than 10 sec on a shock pad for the third time.
# [2] = tested on: mdx^5cv mice; experiment: Tibialis anterior muscle strength and rate of fatigue; type: in vivo, mouse
# From the text: as §1
# Tibialis anterior muscle strength (maximal isometric force) and rate of fatigue were measured. Briefly, animals were anaesthetized with 3-5% isoflurane and placed in a supine position. The tibia was stabilized and the distal tendon of the tibialis anterior (TA) was surgically released and attached to the load cell (FT03, Grass Instruments, Warwick, RI). The load cell was adjusted via a micromanipulator to stretch the muscle to resting length (aka, optimal length). TA contraction was then triggered via subcutaneous stimulation of the fibular nerve, and the resulting force generated was sampled at 1 kHz and analyzed with acquisition software (PolyVIEW™ 16, Grass Instruments). After contractile function experiments, animals were euthanized and the TAs were harvested and weighed. […] To provide an index of fatigue, muscle tension was measured after 5 minutes of tetanic stimulation (200 ms train duration) repeated at 1 Hz and expressed as a percentage of initial tension.
# [3] = tested on: mdx^5cv mice; experiment: Quadriceps strength and susceptibility to injury; type: in vivo, mouse
# From the text: as §1
# In vivo muscle physiology. Quadriceps strength (maximal isometric torque) and susceptibility to injury were assessed in vivo as described (69, 70). Briefly, animals were anaesthetized with 3-5% isoflurane and placed in a supine position. The thigh was stabilized and the ankle was secured on to a lever arm. The knee was aligned with the axis of the stepper motor (model T8904, NMB Technologies, Chatsworth, CA, USA) and a torque sensor (QWFK-8M, Sensotec, Columbus, OH, USA), and the femoral nerve was stimulated via subcutaneous needle electrodes. A custom program based on commercial software (LabView version 8.5, National Instruments, Austin, TX, USA) was used to synchronize contractile activation and the onset of forced knee flexion. The position of the leg that results in optimal muscle length has been previously described and maximum isometric torque was measured in Newton-millimeters (Nmm). Injury was induced by 15 forced lengthenings (knee flexion) superimposed onto maximal quadriceps contractions through a 40-100 degree arc of motion (with full knee extension considered 0 deg) spaced 1 min apart. Loss in maximal isometric torque was measured 5 min after the last lengthening contraction. Since the knee position, lever arm, and moment arm of the muscle are unchanged between tests, maximal isometric torque reflects maximal isometric muscle force.
# [4] = tested on: mdx^5cv mice; experiment: Masson's trichrome fibrosis in diaphragm muscle; type: in vivo, mouse; conditions: ip, 10 mg/kg, 1344 h
# From the text: as §1
# Gastrocnemius, tibialis anterior, and diaphragm muscles were embedded in OCT, frozen in isopentane, and cross-sectioned (˜2-10 μm thickness). The sections were also stained with DAPI to visualize nuclei. In mice where Evans blue dye (EBD, 10 mg/ml) was used to evaluate membrane damage, EBD was injected at 0.05 ml/10 g intraperitoneally, 24 hours before sacrificing the mice. To evaluate EBD staining, gastrocnemius muscle sections were fixed with acetone and imaged with fluorescence microscopy. The area of EBD as a percentage of total area was calculated. To evaluate the number of central nucleated fibers, sections of the tibialis anterior muscle were stained with hematoxylin and eosin. Central nucleated fiber number was counted and analyzed against total fiber number. Diaphragm sections (10 μm) were stained with Masson's trichrome to determine collagen content. The stained areas were quantified against the total area.
# [5] = tested on: MEF2C; experiment: MEF2C protein expression by Western blot and immunocytochemistry in D2 myoblasts; type: cell-based, human
# From the text: FIG. 2C: Representative image of ginsenoside Rd-treated myoblasts labeled by MyHC. FIG. 2E Cell average length dose-response curve of ginsenoside Rd (FIGS. 2E-2F) Western blot quantification of MEF2C protein level post Saponin Q. and ginsenoside Rd treatment alongside healthy hiPSC derived myoblasts control and DMSO negative controls, *P 5 0.05, n=3. FIG. 2G: Quantification of MEF2C expressing nuclei of saponin Q. and ginsenoside Rd-treated D2 myoblasts, n=3, *P 5 0.05. (Data=Mean±SEM, one-way ANOVA with Dunnett's multiple comparison test with DMSO negative control).
# (§3) Whole-cell extracts were prepared by lysing cells on plate with RIPA buffer (CST) supplemented by proteinase inhibitor and phosphatase inhibitor cocktail (CST). Western blotting was performed according to the standard protocol using precast NuPAGE (4-12%) Bis-Tris gel (Invitrogen). Protein transfer was performed with the Bio-Rad turbo or wet/tank blotting system. Nitrocellulose membranes were incubated with primary antibodies overnight at 4° C. Membranes were then incubated with a secondary IRDye 800 conjugated anti-rabbit IgG, or Alexa Fluor 680 anti-mouse IgG and proteins were visualized and quantified using the LI-COR Odyssey Infrared Imaging System (LI-COR). Primary antibodies applied in this study were all purchased from Cell Signaling Technology except for the MEF2C antibody, which was from Sigma.
# [6] = tested on: p21 (WAF1/CIP1); experiment: Western blot of p21 protein expression in D2 myoblasts; type: cell-based, human; conditions: ginsenoside 25 μM or FLT3 recombinant protein 100 ng/ml, 30 min
# Method: FIG. 3A: Top pathways selected by ingenuity pathway analysis of microarray result from ginsenoside Rd and fenofibrate-treated D2 myoblasts for 24 hours. Absolute z-score values above 2 were highlighted in red. FIGS. 3B and 3D: Quantification of western blot of p21 protein expression in D2 myoblasts treated with ginsenoside (25 μM), FLT3 recombinant protein (100 ng/ml) or DMSO for 30 min, n=4, *P≤0.05. FIG. 3C, 3E: Quantification of western blot of phosphorylated ERK 1/2 (p-ERK 1/2) in D2 myoblasts treated with ginsenoside (25 μM), FLT3 recombinant protein (100 ng/ml) or DMSO for 30 min, n=4, *P≤0.05. […] (Data=Mean±SEM, FIGS. 3D, 3E: one-way ANOVA with Dunnett's multiple comparison test with DMSO negative control, FIG. 3G: one-way ANOVA with Tukey's multiple comparison test).
# as §3, with “Nitrocellulose membranes were incubated with primary antibodies overnight at 4° C.” left out, “Primary antibodies applied in this study were all purchased from Cell Signaling Technology except for the MEF2C antibody, which was from Sigma.” left out
# [7] = tested on: mdx^5cv mice; experiment: Forelimb grip strength; type: in vivo, mouse; conditions: 8 weeks treatment
# Method: as §1, §2
smiles,measurement,setting,value
CC(C)=CCC[C@](C)(O[C@@H]1O[C@H](CO)[C@@H](O)[C@H](O)[C@H]1O)[C@H]1CC[C@]2(C)[C@@H]1[C@H](O)C[C@@H]1[C@@]3(C)CC[C@H](O[C@@H]4O[C@H](CO)[C@@H](O)[C@H](O)[C@H]4O[C@@H]4O[C@H](CO)[C@@H](O)[C@H](O)[C@H]4O)C(C)(C)[C@@H]3CC[C@]12C [ginsenoside Rd],improvement of endurance on treadmill running,[1],no effect
same,susceptibility of TA muscles to fatigue (repeated maximal isometric contractions),[2]; compared to mdx TA muscles,less susceptible to fatigue; also recorded: increased their resistance to fatigue
same,maximal isometric force generated by tibialis anterior (TA),[2]; compared with sham control,no significant difference
same,"loss in muscle force after contraction-induced injury, quadriceps",[3],56±4.8%
same,maximal isometric force generated by quadriceps muscle,[3]; compared with sham control,no significant difference
same,reduction of levels of fibrosis in diaphragm,[4],29%
same,levels of MEF2C protein expression (Western blot),[5]; vs DMSO,increased
same,MEF2C expressing cells (immunocytochemistry),[5]; vs vector control,more MEF2C expressing cells
same,levels of p21,[6],Increased levels of p21
same,improvement of forelimb grip strength,[7],19%
